Data as given in patent US11066396B2 (priority 2016, dated 2021).

Target: HDAC1 (Homo sapiens (Human), UniProt Q13547)
Conditions: read-out: HDAC1 IC50

Chain of HDAC1 (Q13547 whole entry): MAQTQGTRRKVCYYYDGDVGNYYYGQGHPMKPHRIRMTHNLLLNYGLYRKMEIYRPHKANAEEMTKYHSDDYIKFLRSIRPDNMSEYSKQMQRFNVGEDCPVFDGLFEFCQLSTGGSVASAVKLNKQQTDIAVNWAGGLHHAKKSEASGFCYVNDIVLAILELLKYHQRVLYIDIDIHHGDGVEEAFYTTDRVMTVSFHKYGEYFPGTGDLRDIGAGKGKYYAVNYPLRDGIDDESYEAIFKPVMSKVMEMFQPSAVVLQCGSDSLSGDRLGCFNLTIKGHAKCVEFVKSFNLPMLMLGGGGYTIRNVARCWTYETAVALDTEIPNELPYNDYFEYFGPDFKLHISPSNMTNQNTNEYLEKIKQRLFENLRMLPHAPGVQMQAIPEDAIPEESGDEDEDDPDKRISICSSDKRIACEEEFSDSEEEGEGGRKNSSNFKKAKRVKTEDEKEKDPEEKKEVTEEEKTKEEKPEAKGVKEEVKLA

SMILES	IC50 [nM]
O=C1Nc2ccc(F)cc2C1Cc1ccc(-c2noc(C(F)(F)F)n2)cc1 (racemic) [Example 193, 5-fluoro-3-{4-[5-(trifluoromethyl)-1,2,4-oxadiazol-3-yl]benzyl}-1,3-dihydro-2H-indol-2-one]	710
O=C1CCC(c2ccc(-c3noc(C(F)(F)F)n3)cc2)N1c1cccc(F)c1 (racemic) [Example 325, 1-(3-fluorophenyl)-5-{4-[5-(trifluoromethyl)-1,2,4-oxadiazol-3-yl]phenyl}pyrrolidin-2-one]	2500
Cc1ccc2c3c(nn2c1)CCC(NCc1ccc(-c2noc(C(F)(F)F)n2)cc1)C3 (racemic) [Example 352, 8-methyl-N-({4-[5-(trifluoromethyl)-1,2,4-oxadiazol-3-yl]phenyl}methyl)-1,2,3,4-tetrahydropyrido[1,2-b]indazol-2-amine]	44
Cc1ccc2c3c(nn2c1)CCC(NCc1ccc(-c2noc(C(F)(F)F)n2)cc1)C3 (racemic) [Example 355, 8-methyl-N-({4-[5-(trifluoromethyl)-1,2,4-oxadiazol-3-yl]phenyl}methyl)-1,2,3,4-tetrahydropyrido[1,2-b]indazol-2-amine]	48
Cc1noc([C@H]2CCCCN2c2ccc(-c3noc(C(F)(F)F)n3)c(Cl)c2)n1 [Example 18, (R)-3-(2-Chloro-4-(2-(3-methyl-1,2,4-oxadiazol-5-yl)piperidin-1-yl)phenyl)-5-(trifluoromethyl)-1,2,4-oxadiazole]	> 15000
O=C(NCc1ccc(-c2noc(C(F)(F)F)n2)cc1)c1cc(N2CCOCC2)ccn1 [Example 204, 4-morpholin-4-yl-N-{4-[5-(trifluoromethyl)-1,2,4-oxadiazol-3-yl]benzyl}pyridine-2-carboxamide]	1000
O=C(NCc1ccc(-c2noc(C(F)(F)F)n2)cc1)c1cccc(O)c1 [Example 205, 3-hydroxy-N-{4-[5-(trifluoromethyl)-1,2,4-oxadiazol-3-yl]benzyl}benzamide]	720
CCn1cc(COc2cc(-c3noc(C(F)(F)F)n3)ccn2)c(C)n1 [Example 206, 2-[(1-ethyl-3-methyl-1H-pyrazol-4-yl)methoxy]-4-[5-(trifluoromethyl)-1,2,4-oxadiazol-3-yl]pyridine]	4200
FC(F)(F)c1nc(-c2ccnc(OCc3c(Cl)nc4sccn34)c2)no1 [Example 208, 6-chloro-5-[({4-[5-(trifluoromethyl)-1,2,4-oxadiazol-3-yl]pyridin-2-yl}oxy)methyl]imidazo[2,1-b][1,3]thiazole]	3100
FC(F)(F)c1nc(-c2ccnc(OCc3cc4n(n3)CCCO4)c2)no1 [Example 210, 2-[({4-[5-(trifluoromethyl)-1,2,4-oxadiazol-3-yl]pyridin-2-yl}oxy)methyl]-6,7-dihydro-5H-pyrazolo[5,1-b][1,3]oxazine]	1200
Cc1cc(C)nc(COc2cc(-c3noc(C(F)(F)F)n3)ccn2)c1 [Example 211, 2,4-dimethyl-6-[({4-[5-(trifluoromethyl)-1,2,4-oxadiazol-3-yl]pyridin-2-yl}oxy)methyl]pyridine]	2500
FC(F)(F)c1nc(-c2ccnc(OCc3ccnn3-c3cccnc3)c2)no1 [Example 212, 2-[(1-pyridin-3-yl-1H-pyrazol-5-yl)methoxy]-4-[5-(trifluoromethyl)-1,2,4-oxadiazol-3-yl]pyridine]	1900
Cc1cnc(COc2cc(-c3noc(C(F)(F)F)n3)ccn2)cn1 [Example 213, 2-methyl-5-[({4-[5-(trifluoromethyl)-1,2,4-oxadiazol-3-yl]pyridin-2-yl}oxy)methyl]pyrazine]	1900
FC(F)(F)c1nc(-c2ccnc(OCc3cnc(Cl)cn3)c2)no1 [Example 214, 2-chloro-5-[({4-[5-(trifluoromethyl)-1,2,4-oxadiazol-3-yl]pyridin-2-yl}oxy)methyl]pyrazine]	1400
FC(F)(F)c1nc(-c2ccnc(OCc3cncc(Cl)n3)c2)no1 [Example 215, 2-chloro-6-[({4-[5-(trifluoromethyl)-1,2,4-oxadiazol-3-yl]pyridin-2-yl}oxy)methyl]pyrazine]	1200
FC(F)(F)c1nc(-c2ccnc(OCc3cncc(N4CCNCC4)n3)c2)no1 [Example 216, 2-piperazin-1-yl-6-[({4-[5-(trifluoromethyl)-1,2,4-oxadiazol-3-yl]pyridin-2-yl}oxy)methyl]pyrazine]	1100
FC(F)(F)c1nc(-c2ccnc(OCc3ncccc3Cl)c2)no1 [Example 217, 3-chloro-2-[({4-[5-(trifluoromethyl)-1,2,4-oxadiazol-3-yl]pyridin-2-yl}oxy)methyl]pyridine]	3800
FC(F)Cn1nc(COc2cc(-c3noc(C(F)(F)F)n3)ccn2)cc1C1CC1 [Example 218, 2-{[5-cyclopropyl-1-(2,2-difluoroethyl)-1H-pyrazol-3-yl]methoxy}-4-[5-(trifluoromethyl)-1,2,4-oxadiazol-3-yl]pyridine]	870
FC(F)(F)Cn1nc(COc2cc(-c3noc(C(F)(F)F)n3)ccn2)cc1C1CC1 [Example 219, 2-{[5-cyclopropyl-1-(2,2,2-trifluoroethyl)-1H-pyrazol-3-yl]methoxy}-4-[5-(trifluoromethyl)-1,2,4-oxadiazol-3-yl]pyridine]	920

SMILES	IC50 [nM]
Cc1cc(COc2cc(-c3noc(C(F)(F)F)n3)ccn2)nn1CC(F)F [Example 220, 2-{[1-(2,2-difluoroethyl)-5-methyl-1H-pyrazol-3-yl]methoxy}-4-[5-(trifluoromethyl)-1,2,4-oxadiazol-3-yl]pyridine]	1200
FC(F)(F)c1nc(-c2ccnc(OCc3ccn(C4CC4)n3)c2)no1 [Example 222, 2-[(1-cyclopropyl-1H-pyrazol-3-yl)methoxy]-4-[5-(trifluoromethyl)-1,2,4-oxadiazol-3-yl]pyridine]	3500
CC(C)n1ccc(COc2cc(-c3noc(C(F)(F)F)n3)ccn2)n1 [Example 223, 2-{[1-(1-methylethyl)-1H-pyrazol-3-yl]methoxy}-4-[5-(trifluoromethyl)-1,2,4-oxadiazol-3-yl]pyridine]	2400
Cn1nc(COc2cc(-c3noc(C(F)(F)F)n3)ccn2)cc1C(C)(C)C [Example 224, 2-[(5-tert-butyl-1-methyl-1H-pyrazol-3-yl)methoxy]-4-[5-(trifluoromethyl)-1,2,4-oxadiazol-3-yl]pyridine]	1200
O=C1CCc2ccc(Br)cc2N1Cc1ccc(-c2noc(C(F)(F)F)n2)cc1 [Example 319, 7-bromo-1-{4-[5-(trifluoromethyl)-1,2,4-oxadiazol-3-yl]benzyl}-3,4-dihydroquinolin-2(1H)-one]	180
O=c1ccc2ccc(F)cc2n1Cc1ccc(-c2noc(C(F)(F)F)n2)cc1 [Example 322, 7-fluoro-1-{4-[5-(trifluoromethyl)-1,2,4-oxadiazol-3-yl]benzyl}quinolin-2(1H)-one]	260
O=C1CCc2ccc(F)cc2N1Cc1ccc(-c2noc(C(F)(F)F)n2)cn1 [Example 323, 7-fluoro-1-({5-[5-(trifluoromethyl)-1,2,4-oxadiazol-3-yl]pyridin-2-yl}methyl)-3,4-dihydroquinolin-2(1H)-one]	53
O=C1CCc2ccccc2N1Cc1ccc(-c2noc(C(F)(F)F)n2)cn1 [Example 324, 1-({5-[5-(trifluoromethyl)-1,2,4-oxadiazol-3-yl]pyridin-2-yl}methyl)-3,4-dihydroquinolin-2(1H)-one]	150
O=C1c2cc(F)ccc2CCN1Cc1ccc(-c2noc(C(F)(F)F)n2)cn1 [Example 327, 7-fluoro-2-({5-[5-(trifluoromethyl)-1,2,4-oxadiazol-3-yl]pyridin-2-yl}methyl)-3,4-dihydroisoquinolin-1(2H)-one]	640
O=C1CCc2ncccc2N1Cc1ccc(-c2noc(C(F)(F)F)n2)cn1 [Example 328, 1-({5-[5-(trifluoromethyl)-1,2,4-oxadiazol-3-yl]pyridin-2-yl}methyl)-3,4-dihydro-1,5-naphthyridin-2(1H)-one]	580
Fc1ccc2c(c1)N(Cc1ccc(-c3noc(C(F)(F)F)n3)cn1)CCO2 [Example 347, 6-fluoro-4-({5-[5-(trifluoromethyl)-1,2,4-oxadiazol-3-yl]pyridin-2-yl}methyl)-3,4-dihydro-2H-1,4-benzoxazine]	600
CC1(Cc2ccc(-c3noc(C(F)(F)F)n3)cc2)C(=O)Nc2ccc(F)cc21 (stereo not shown) [Example 348, 5-fluoro-3-methyl-3-{4-[5-(trifluoromethyl)-1,2,4-oxadiazol-3-yl]benzyl}-1,3-dihydro-2H-indol-2-one]	2400
FC(F)(F)c1nc(-c2ccc(CNc3cccc(-c4cnco4)c3)nc2)no1 [Example 360, 3-(1,3-oxazol-5-yl)-N-({5-[5-(trifluoromethyl)-1,2,4-oxadiazol-3-yl]pyridin-2-yl}methyl)aniline]	7.6
FC(F)(F)c1nc(-c2ccc(CNc3cccc(-n4cncn4)c3)nc2)no1 [Example 364, 3-(1H-1,2,4-triazol-1-yl)-N-({5-[5-(trifluoromethyl)-1,2,4-oxadiazol-3-yl]pyridin-2-yl}methyl)aniline]	60
NC(=O)c1cccc(CCOc2cc(-c3noc(C(F)(F)F)n3)ccn2)c1 [Example 459, 3-[2-({4-[5-(trifluoromethyl)-1,2,4-oxadiazol-3-yl]pyridin-2-yl}oxy)ethyl]benzamide]	1800
O=c1ccc2ccccc2n1Cc1ccc(-c2noc(C(F)(F)F)n2)cn1 [Example 460, 1-({5-[5-(trifluoromethyl)-1,2,4-oxadiazol-3-yl]pyridin-2-yl}methyl)quinolin-2(1H)-one]	99
O=C1CSc2ccccc2N1Cc1ccc(-c2noc(C(F)(F)F)n2)cn1 [Example 463, 4-({5-[5-(trifluoromethyl)-1,2,4-oxadiazol-3-yl]pyridin-2-yl}methyl)-2H-1,4-benzothiazin-3(4H)-one]	130
O=C1CCc2cc(C(F)(F)F)ccc2N1Cc1ccc(-c2noc(C(F)(F)F)n2)cn1 [Example 464, 6-(trifluoromethyl)-1-({5-[5-(trifluoromethyl)-1,2,4-oxadiazol-3-yl]pyridin-2-yl}methyl)-3,4-dihydroquinolin-2(1H)-one]	300
